Measured values published in patent publication US20060073156A1, “Fosfomycin and n-acetylcysteine for the treatment of biofilms caused by escheric ia coli and other pathogens of the urinary tract” (ZAMBON GROUP S.P.A., priority 2002, published 2006).
Values joined by “and” are separate entries in the source; they are usually repeats but may differ in a detail not shown here. Identical values can stand only once. Like-named read-outs stand apart in the source and are kept apart here.

Experiments:
[1] = system: biofilms of P. aeruginosa; conditions: Antimicrob. Agents Chemother., 35, 1258, (1991); cited from earlier work
[2] = system: Escherichia coli; experiment: Bacterial growth of cultures with NAC added; type: cell-based; conditions: various concentrations of NAC added to the cultures; all E. coli strains tested
[3] = system: biofilm produced by Escherichia coli; experiment: Formation of biofilm, Crystal Violet staining in polystyrene microplates, measured at 492 nm; type: cell-based; conditions: various concentrations of NAC added to the cultures; three strains out of four
Experimental: (§1) The effects of NAC and fosfomycin on the biofilm produced by Escherichia coli have been evaluated on four strains designated 169, 255, 1263 and 1293, from the Microbiological Collection of the Genua University.
(§2) Formation of the biofilms was measured spectrophotometrically in U-bottom polystyrene microplates (Corning Incorporated, NY).
In more detail, the effect of NAC on the formation of biofilms was evaluated as follows: overnight cultures in Tryptic Soy Broth (TSB) with addition of glucose (0.25%). (TSBG) were diluted 1:100 in TSBG. These suspensions (100 μl each) were added to suitable dilutions of NAC at concentrations ranging from 8 mg/ml to 0.007 mg/ml respectively. After incubation at 37° C. for 24 hours, the microplates were washed three times with 10 mM phosphate buffer pH 7.4 (PBS), treated with Bouin fixative and then stained with Crystal Violet (0.01%).
(§3) The biofilm adhering to the walls of the microplates was collected via washing with PBS, suspended in 10% sarbosyl and measured spectrophotometrically at 492 nm.

[4] = system: S. epidermidis; conditions: J. Ant. Chem., 39, 643, (1997); cited from earlier work
[5] = system: biofilm produced by Escherichia coli; experiment: Disruption of biofilms: residual quantity of biofilm after treatment of initial (5 hours) and fully consolidated (48 hours) biofilms; type: cell-based; conditions: NAC alone; for reduction of mature biofilms: mature (48 hours) biofilms
Experimental: as §1, §2, §3
The same method was used for calculating the residual quantity of biofilm after treatment with NAC and fosfomycin, alone or associated, on Escherichia coli. For this purpose, biofilms with two different degrees of maturity: initial (5 hours) and fully consolidated (48 hours) were exposed to appropriate concentrations of NAC (from 8 mg/ml to 0.007 mg/ml) with addition of fosfomycin at the concentrations attainable in vivo in the urine.

[6] = system: Escherichia coli cells of the biofilm; experiment: Bacterial viability of biofilm cells: sonication, seeding, count of viable units (CFU/ml); type: cell-based; conditions: for inhibition at 2000 µg/mL: Escherichia coli, fosfomycin 2000 mg/l alone, read-out: reductions in viable units
Experimental: as §1
At the same time the biofilms treated in this way were submitted to sonication in order to disperse the cells that were still adhering, which were seeded on rich medium after suitable dilution for calculating the viable units that survived the various treatments.

For `CC(=O)N[C@@H](CS)C(=O)O` [NAC, N-acetylcysteine], the “ability to disrupt biofilms” value [1] is given as “ability to disrupt biofilms”, the “changes in bacterial growth” value [2] is given as “did not cause appreciable changes” and the “reductions in biofilm (formation)” value [3] is given as “greater than 50%”. The “inhibition of biofilm formation” value [4] was “inhibit their formation”, the “reduction of initial biofilms” value ([5]; initial (5 hours) biofilms, strains not named) was 51.7% and 64.0% and 58.4% and the “reduction of mature biofilms” value ([5]; Escherichia coli 169) was 25.2%. For the same compound, the “reduction of mature biofilms” value ([5]; three strains out of four) was 64.3% and 60.2% and 67.7%.

In the case of `C[C@@H]1O[C@@H]1P(=O)(O)O` [fosfomycin, Fosfomycin], the inhibition at 2000 µg/mL ([6]; fully consolidated biofilms) was 36 to 85.7%, the inhibition at 2000 µg/mL ([6]; initial biofilms) was 98 to 99.5% and the “reductions in CFU/ml” value ([6]; fosfomycin 128 mg/l alone) was “less than 1 logarithm”.
